Results from PubChem BioAssay (NCI).
Values joined by “and” are separate entries in the source; they are usually repeats but may differ in a detail not shown here. Identical values can stand only once.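 Growth conditions: 96-well plates. Treatment: test compound, 48 hours, 5 concentrations. Analysis: linear interpolation between bracketing concentrations; unreached endpoints set to highest concentration. Abbreviation: GI50, concentration required for 50% inhibition of growth. TGI marks complete inhibition of growth.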

How the values were obtained:
Assay in all cases: NCI anticancer screen, dose series, 48 h
OVCAR-3 ovarian = system: OVCAR-3 ovarian
M14 melanoma = system: M14 melanoma
OVCAR-5 ovarian = system: OVCAR-5 ovarian
SR leukemia = system: SR leukemia
EKVX NSCLC = system: EKVX NSCLC
PC-3 prostate = system: PC-3 prostate
RXF 393 renal = system: RXF 393 renal
TK-10 renal = system: TK-10 renal
SK-MEL-2 melanoma = system: SK-MEL-2 melanoma
HL-60(TB) leukemia = system: HL-60(TB) leukemia

O=C(Nc1ccc(Cl)cc1)Nc1ccc(Nc2nncc3ccccc23)cc1
GI50 (OVCAR-3 ovarian): 2.57 µM | TGI (OVCAR-3 ovarian): 10.3 µM | GI50 (M14 melanoma): 1.52 µM | TGI (M14 melanoma): 11.5 µM | GI50 (OVCAR-5 ovarian): 4.15 µM | TGI (OVCAR-5 ovarian): 34.3 µM | GI50 (SR leukemia): 3.89 µM | TGI (SR leukemia): 23.4 µM | GI50 (EKVX NSCLC): 2.95 µM | TGI (EKVX NSCLC): 25.3 µM | GI50 (PC-3 prostate): 2.32 µM | TGI (PC-3 prostate): 11 µM | GI50 (RXF 393 renal): 4.28 µM | TGI (RXF 393 renal): 21.4 µM | GI50 (TK-10 renal): 5.03 µM | TGI (TK-10 renal): 24.4 µM | GI50 (SK-MEL-2 melanoma): 2.7 µM | TGI (SK-MEL-2 melanoma): 7.7 µM | GI50 (HL-60(TB) leukemia): 2.42 µM | TGI (HL-60(TB) leukemia): 7 µM

CC#CC(=O)SCCNC(=O)CC
TGI (OVCAR-3 ovarian): > 10 µM | TGI (M14 melanoma): > 10 µM | TGI (OVCAR-5 ovarian): > 10 µM | TGI (SR leukemia): > 7.91 µM | TGI (EKVX NSCLC): > 10 µM | TGI (PC-3 prostate): > 10 µM | TGI (RXF 393 renal): > 9.55 µM | TGI (TK-10 renal): > 10 µM | TGI (SK-MEL-2 melanoma): > 10 µM | TGI (HL-60(TB) leukemia): > 10 µM

COc1ccc(/C=C\c2cc(OC)c(OC)c(OC)c2)cc1OC
GI50 (OVCAR-3 ovarian): 0.0543 µM | TGI (OVCAR-3 ovarian): 0.256 µM and 0.801 µM | GI50 (M14 melanoma): 0.0603 µM | TGI (M14 melanoma): 40.4 µM and 18.1 µM | GI50 (OVCAR-5 ovarian): 0.324 µM | TGI (OVCAR-5 ovarian): 40.4 µM and > 100 µM | GI50 (SR leukemia): 0.0204 µM | TGI (SR leukemia): 0.277 µM and 0.0612 µM | GI50 (EKVX NSCLC): 0.333 µM | TGI (EKVX NSCLC): 40.4 µM and > 100 µM | TGI (PC-3 prostate): > 100 µM | TGI (RXF 393 renal): > 100 µM | GI50 (TK-10 renal): 23.5 µM | TGI (TK-10 renal): 40.4 µM and > 100 µM | GI50 (SK-MEL-2 melanoma): 0.121 µM | TGI (SK-MEL-2 melanoma): 40.4 µM and > 100 µM | GI50 (HL-60(TB) leukemia): 0.0231 µM | TGI (HL-60(TB) leukemia): 0.332 µM and 0.0582 µM

C/C=C(/C)C(=O)O[C@H](C[C@@H](C)[C@H]1CC(c2ccoc2)OC1=O)[C@@]1(C)C(=O)CCC2O[C@]21C (stereo partly specified)
TGI (OVCAR-3 ovarian): > 100 µM | TGI (M14 melanoma): > 100 µM | TGI (OVCAR-5 ovarian): > 100 µM | TGI (SR leukemia): > 100 µM | TGI (EKVX NSCLC): > 100 µM | TGI (PC-3 prostate): > 100 µM | TGI (RXF 393 renal): > 100 µM | TGI (TK-10 renal): > 100 µM | TGI (SK-MEL-2 melanoma): > 100 µM | TGI (HL-60(TB) leukemia): > 100 µM

COc1c(Cl)cc(NC(=S)C#N)cc1Cl
TGI (OVCAR-3 ovarian): > 62.8 µM | TGI (M14 melanoma): 64.4 µM | TGI (OVCAR-5 ovarian): > 100 µM | TGI (SR leukemia): > 92.2 µM | TGI (EKVX NSCLC): > 74 µM | TGI (PC-3 prostate): > 100 µM | TGI (RXF 393 renal): > 81.4 µM | TGI (TK-10 renal): > 100 µM | TGI (SK-MEL-2 melanoma): 86.2 µM | TGI (HL-60(TB) leukemia): > 100 µM

Cc1ccc(CNc2c3ccccc3nc3cc(NC(=O)CCN4CCCC4)ccc23)cc1
GI50 (OVCAR-3 ovarian): 0.768 µM | TGI (OVCAR-3 ovarian): 2.11 µM | GI50 (M14 melanoma): 1.45 µM | TGI (M14 melanoma): 2.84 µM | GI50 (OVCAR-5 ovarian): 0.793 µM | TGI (OVCAR-5 ovarian): 2.1 µM | GI50 (SR leukemia): 0.301 µM | TGI (SR leukemia): 1.82 µM | GI50 (EKVX NSCLC): 0.862 µM | TGI (EKVX NSCLC): 2.25 µM | GI50 (PC-3 prostate): 0.515 µM | TGI (PC-3 prostate): 1.83 µM | GI50 (RXF 393 renal): 0.414 µM | TGI (RXF 393 renal): 1.57 µM | GI50 (TK-10 renal): 1.23 µM | TGI (TK-10 renal): 2.85 µM | GI50 (SK-MEL-2 melanoma): 1.69 µM | TGI (SK-MEL-2 melanoma): 3.23 µM

CCCOC(=O)N1CCN(/[N+]([O-])=N/Oc2ccc([N+](=O)[O-])cc2[N+](=O)[O-])CC1
GI50 (OVCAR-3 ovarian): 2.29 µM | TGI (OVCAR-3 ovarian): 4.48 µM | GI50 (OVCAR-5 ovarian): 3.43 µM | TGI (OVCAR-5 ovarian): 12.7 µM | GI50 (SR leukemia): 0.373 µM | TGI (SR leukemia): > 100 µM | GI50 (EKVX NSCLC): 2.64 µM | TGI (EKVX NSCLC): 7.79 µM | GI50 (PC-3 prostate): 4.14 µM | TGI (PC-3 prostate): 15.1 µM | GI50 (RXF 393 renal): 8.67 µM | TGI (RXF 393 renal): 23.8 µM | GI50 (TK-10 renal): 3.87 µM | TGI (TK-10 renal): 14.9 µM | GI50 (SK-MEL-2 melanoma): 2.71 µM | TGI (SK-MEL-2 melanoma): 7.78 µM | GI50 (HL-60(TB) leukemia): 0.727 µM | TGI (HL-60(TB) leukemia): 8.15 µM

NC(=O)c1c(NC(=O)c2ccc3c(c2)OCO3)sc2c1CCC(=O)C2
GI50 (M14 melanoma): 0.59 µM | TGI (M14 melanoma): > 100 µM | GI50 (SR leukemia): 0.372 µM | TGI (SR leukemia): > 100 µM | GI50 (PC-3 prostate): 0.313 µM | TGI (PC-3 prostate): > 100 µM | GI50 (RXF 393 renal): 1.88 µM | TGI (RXF 393 renal): 5.36 µM | GI50 (TK-10 renal): 3.32 µM | TGI (TK-10 renal): > 100 µM | GI50 (HL-60(TB) leukemia): 0.554 µM | TGI (HL-60(TB) leukemia): 8.28 µM
